From patent US6642215B2 (Leo Pharma A/S, priority 2001, dated 2003)
Read-outs that look alike come from different tables or passages of the source.

Columns and labels:
[1] = tested on: NF-κB; test: NF-κB-dependent luciferase assay in PC-3 cells, TNF-α stimulation; type: cell-based, human; conditions: compound 24 h before TNF-α 50 ng/ml 6 h
Experimental: (§1) The NF-κB-luciferase reporter plasmid (pBIIX) and pRL-TK control vector described in Example 1 were used for the luciferase assay,
The PC-3 cells were seeded at a density of 3×10^4 cells/cm^2 in 6 well-plates. The following day, the cells were co-transfected with construct DNA and pRL-TK vector using DOTAP liposomal transfection reagent (Boehringer Mannheim). The construct DNA (4.0 μg per well), the pRL-TK vector (1.0 μg per well), DOTAP (16.7 μl per well) and dH2O (total volume 100 μl per well) were carefully mixed and incubated for 15 min at 37° C. A growth medium without serum (900 μl per well) was added and the transfection mixture (1 ml per well) was added to the cells. After 4 h at 37° C., a growth medium with 20% FBS (1 ml per well) was added. The cells were treated at 37° C. with compound A (10^−12−10^−5 M) or DMSO for 24 h before stimulation with TNF-α (50 ng/ml) for 6 h.
(§2) The cell lysate was assayed for luciferase activity using the Dual luciferase kit as described by the manufacturer (Promega). All transfections were performed in triplicate. Firefly luciferase activity was corrected for differences in transfection efficiency by normalizing it to the measured Renilla luciferase activity.
(§3) NF-κB activity was measured by the luciferase assay described in Example 1.

[2] = tested on: PC-3 Xenografts; test: PC-3 xenografts in nude mice, tumour growth; type: in vivo, NMRI nu/nu mice; conditions: PC-3 xenograft, 50 mg/kg, oral gavage
Experimental: (§4) All of the animal experiments were conducted according to the guidelines and ethical standards of the Danish Committee for Animal Experiments. Female NMRI nu/nu mice 6 weeks of age were purchased from M&B (Ry, Denmark). The mice were allowed an acclimatisation period of 1-3 weeks before start of the experiments. The nude mice were housed in Scantainers under semi-sterile conditions and all handling of mice was performed in a laminar flow bench.
PC-3 Xenografts. NMRI nu/nu mice were injected with 1×10^6 cells in 0.2 ml media s.c. in each flank and tumour size was measured as mentioned above. Compound A was given for four weeks by oral gavage from day 14 when the tumour size was about 12 mm^2. Each treatment group consisted of 10 mice.
(§5) Statistical Methods In the animal models, tumour sizes were expressed by the mean of the trends in each treatment group. The trend is the linear increment or tumour size, where tumour size is the square root of the (mean) area of the tumour(s). Comparison with controls was expressed as T/C % and calculated as follows:
A=(overall mean tumour size at baseline+mean trend of treatment*intended days of treatment) […]
Overall mean tumour size at baseline=pooling all treatments this is the mean of all baseline values. For each mouse the baseline value is calculated as the square root of the (mean) area of the tumour(s). […]

[3] = target: T1, IKK (Homo sapiens, UniProt O14920); test: In vitro kinase assay: IKK immunoprecipitated from LPS-stimulated THP-1 cells, GST-IκBα phosphorylation; type: biochemical; conditions: 30 min pretreatment of LPS-activated IKK
T1 construct: IKK was immunoprecipitated with an IKKα/β antibody; endogenous in cells; host or cells: THP-1 cells stimulated with 1 μg/ml LPS; whole cell extract immunoprecipitated with an IKKα/β antibody (Santa Cruz)
T1 sequence (O14920 whole entry): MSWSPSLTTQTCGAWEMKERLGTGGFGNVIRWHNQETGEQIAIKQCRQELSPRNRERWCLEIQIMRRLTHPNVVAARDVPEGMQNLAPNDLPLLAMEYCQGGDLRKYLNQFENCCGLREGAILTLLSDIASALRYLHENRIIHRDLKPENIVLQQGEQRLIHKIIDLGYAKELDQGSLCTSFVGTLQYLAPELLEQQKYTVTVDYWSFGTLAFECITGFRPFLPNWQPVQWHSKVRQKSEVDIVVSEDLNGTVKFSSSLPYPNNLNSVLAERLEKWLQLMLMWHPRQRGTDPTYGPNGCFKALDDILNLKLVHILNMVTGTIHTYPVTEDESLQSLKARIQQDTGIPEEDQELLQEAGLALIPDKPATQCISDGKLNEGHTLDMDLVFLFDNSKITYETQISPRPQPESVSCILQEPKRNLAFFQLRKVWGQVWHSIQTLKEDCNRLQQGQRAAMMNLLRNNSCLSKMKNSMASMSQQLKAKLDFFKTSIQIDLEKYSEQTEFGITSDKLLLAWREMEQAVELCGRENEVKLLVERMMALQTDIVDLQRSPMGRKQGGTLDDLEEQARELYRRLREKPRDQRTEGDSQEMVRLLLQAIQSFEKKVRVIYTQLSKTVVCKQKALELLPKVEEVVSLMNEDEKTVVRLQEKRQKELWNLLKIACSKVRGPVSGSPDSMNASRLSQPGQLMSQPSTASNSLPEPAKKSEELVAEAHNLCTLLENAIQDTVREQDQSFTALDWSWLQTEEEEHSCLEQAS
T1 sequence (O15111 whole entry partner): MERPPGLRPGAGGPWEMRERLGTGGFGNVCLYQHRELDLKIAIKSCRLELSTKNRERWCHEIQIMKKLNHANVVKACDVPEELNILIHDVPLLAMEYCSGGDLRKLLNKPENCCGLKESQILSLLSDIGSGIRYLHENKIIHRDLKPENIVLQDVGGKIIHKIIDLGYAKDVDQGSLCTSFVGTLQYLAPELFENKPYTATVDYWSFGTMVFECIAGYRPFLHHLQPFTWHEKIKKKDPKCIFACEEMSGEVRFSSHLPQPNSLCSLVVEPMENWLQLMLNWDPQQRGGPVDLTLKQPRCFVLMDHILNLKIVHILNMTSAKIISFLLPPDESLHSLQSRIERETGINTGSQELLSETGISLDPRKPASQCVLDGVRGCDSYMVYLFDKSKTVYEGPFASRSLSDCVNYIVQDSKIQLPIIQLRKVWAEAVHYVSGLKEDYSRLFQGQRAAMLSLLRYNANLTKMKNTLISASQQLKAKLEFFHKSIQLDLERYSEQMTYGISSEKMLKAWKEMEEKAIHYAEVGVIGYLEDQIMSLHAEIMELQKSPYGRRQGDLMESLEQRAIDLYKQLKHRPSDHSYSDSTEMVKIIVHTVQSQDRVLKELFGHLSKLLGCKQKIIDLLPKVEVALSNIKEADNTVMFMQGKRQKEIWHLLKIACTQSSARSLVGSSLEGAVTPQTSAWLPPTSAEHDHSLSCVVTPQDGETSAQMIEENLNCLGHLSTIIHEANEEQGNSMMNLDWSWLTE
T1 sequence (Q9Y6K9 whole entry partner): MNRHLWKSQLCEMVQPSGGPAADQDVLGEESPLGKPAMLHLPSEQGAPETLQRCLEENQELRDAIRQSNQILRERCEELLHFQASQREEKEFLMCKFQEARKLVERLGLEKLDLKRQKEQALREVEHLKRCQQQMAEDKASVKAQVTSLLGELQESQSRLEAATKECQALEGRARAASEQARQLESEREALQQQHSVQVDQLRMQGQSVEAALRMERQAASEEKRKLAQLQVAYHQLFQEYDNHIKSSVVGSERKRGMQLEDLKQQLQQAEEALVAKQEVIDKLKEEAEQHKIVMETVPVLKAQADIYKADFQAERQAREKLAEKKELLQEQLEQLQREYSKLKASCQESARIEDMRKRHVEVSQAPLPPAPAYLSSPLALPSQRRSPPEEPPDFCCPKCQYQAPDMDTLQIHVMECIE
Experimental: In vitro kinase assay: THP-1 cells (1×10^7 cells) were stimulated with 1 μg/ml LPS for the indicated time periods and whole cell extracts were prepared as described above. IKK was immunoprecipitated with an IKKα/β antibody (raised against amino acid 470-755 of IKKβ of human origin but partially cross-reactive with IKKα as detected by Western Blotting (Santa Cruz Biotechnology Inc.). Compound A was diluted in kinase buffer (25 mM HEPES pH 7.5, 10 mM magnesium acetate, 50 μM ATP) at the appropriate concentrations. The compound was added to the beads for 30 min. at 30° C. The kinase reaction was started by adding 2.5 μg of the GST-IκBα substrate (Santa Cruz Biotechnology Inc.) together with 2 μCi γ-^32P-ATP (Amersham Pharmacia Biotech) per sample. The reaction was allowed to proceed for 30 min. at 30° C., and the IKK activity was measured by the amount of radioactive-labelled GST-IκBα bands, quantified by the STORM860 Phospho-Imager.
A general problem with the kinase assay is prestimulation of the kinase. To achieve a value for the zero-point, the LPS-activated IKK mixture was incubated with 20 μM myricetin (Sigma-Aldrich), which is a known IKKβ inhibitor (S. H. Tsal et al., J. Cell Biochem. 74, 1999, pp. 606-615). This value was subtracted from the all other values. All data are expressed as percentage of the activity of the LPS-activated IKKβ kinase treated with 0.1% DMSO.

[4] = tested on: NF-κB; test: NF-κB-dependent luciferase assay in HT-1080 cells, TNF-α stimulation; type: cell-based, human; conditions: Homo sapiens, compound 24 h before TNF-α 50 ng/ml 6 h, mean ± SD
Experimental: as §1
The HT-1080 cells were seeded at a density of 3×10^4 cells/cm^2 in 6 well-plates. The following day, the cells were co-transfected with construct DNA and pRL-TK vector using FuGene Transfection Reagent. A mixture of 10 μl Fugene and 90 μl serum free medium (per well) was prepared and Incubated for 5 min at room temperature. Then, this mixture was transferred to a mixture of construct DNA (1.25 μg per well) and pRL-TK vector (0.25 μg per well), gently mixed, incubated for 15 min at room temperature and added to the cells. The cells were treated at 37° C. with compound A (10^−12−10^−5 M) or DMSO for 24 h before stimulation with TNF-α (50 ng/ml) for 6 h.
as §2, §3

[5] = tested on: NYH Xenografts; test: NYH xenografts in nude mice, tumour growth; type: in vivo, NMRI nu/nu mice
Experimental: as §4
NYH Xenografts. NMRI nu/nu mice were injected with 1×10^7 cells in 0.2 ml media s.c. in both flanks and tumour growth was measured twice weekly. The tumour area was used as expression of the tumour size and was calculated from two perpendicular diameters measured with a digital caliper. Compound A was given for fourteen consecutive days by oral gavage from day 4-6 when the tumour size was 24-30 mm^2. Each treatment group consisted of 10 mice.
as §5
A=(overall mean tumour size at baseline+mean trend of treatment*intended days of treatment)
B=(overall mean tumour size at baseline+mean trend of control*intended days of treatment)
Overall mean tumour size at baseline=pooling all treatments this is the mean of all baseline values. For each mouse the baseline value is calculated as the square root of the (mean) area of the tumour(s).
Significance was tested with the Bonferroni correction. This correction is a method for adjusting (lowering) the significance level so the overall finding of one significant difference due to chance is around 5 percent.

N#CNC(=Nc1ccncc1)NCCCCCCOc1ccc(Cl)cc1 [compound A, N-(6-(4-chlorophenoxy)hexyl)-N′-cyano-N″-(4-pyridyl)guanidine]
NF-κB activity (IC50 nM) [1]: no inhibition | In vivo xenografts in nude mice T/C (%) [2]: −5% | IC50 ([3]; four independent experiments, read-out: IKK activity IC50, range of values): 0.9 to 70 nM | IC50 ([3]; mean of four independent experiments, read-out: IKK activity, mean IC50 value): 8 nM | IC50 [4]: 2480 ± 775 nM | In vivo xenografts in nude mice T/C (%) ([5]; NYH SCLC xenograft, 50 mg/kg, oral gavage): −100% | NYH tumor growth in vivo (T/C in %) ([5]; nude mice with NYH SCLC tumours, 14 days of treatment with 20 mg/kg): −44%
